We go through seven molecules from patent US10100070B2, “Borate-based base generator, and base-reactive composition comprising such base generator” (FUJIFILM Wako Pure Chemical Corporation, priority 2014, dated 2018).

Data set [1] can be described thus: Storage stability tests to a base-reactive compound. Format: physicochemical. As to conditions: 0.1 g in 2 g SR-NPG, 1 week at 40° C., viscosity change.
Data set [2] can be described thus: Heat resistance tests (TG-DTA). Type of data set: physicochemical. The following applies: 10 mg, heated from 30° C. to 500° C. at 10° C./min. From the text:
Thus calculated temperature was used as decomposition initiation temperature to evaluate heat resistance of these compounds (base generators).

The nature of data set [3]: Solubility tests to organic solvents and a base-reactive compound.
Protocol: The case where the compounds (base generators) were dissolved into less than 1 mL of the addition amount of the organic solvents or the base-reactive compound was evaluated as [++]; the case where the compounds (base generators) were dissolved into not less than 1 mL and less than 5 mL thereof was evaluated as [+]; the case where the compounds (base generators) were dissolved into not less than 5 mL and less than 10 mL thereof was evaluated as [−]; and the case where the compounds (base generators) were dissolved only into not less than 10 mL thereof was evaluated as [−−].

In the case of “tetrakis(tetramethylguanidino)phosphonium p-tolylethynyl triphenylborate [Example 7]”, the “Storage stability in epoxy” value in data set [1] was “◯”. The “TG-DTA Decomposition Initiation Temperature (5% weight loss initiation temperature)” value in data set [2] came out at 300 °C.
As for “tetrakis(tetramethylguanidino)phosphonium tetraphenylborate [Comp. Ex. 4]”, the “Storage stability in epoxy” value in data set [1] was “−”. In addition, in data set [3] (0.1 g compound, ethyl lactate added gradually at room temperature, visual), the “Solubility in EL” value was “−− (dissolved only into not less than 10 mL thereof)”. Also, in data set [3] (0.1 g compound, neopentylglycol diglycidyl ether added gradually at room temperature, visual), the “Solubility in SR-NPG” value is “−− (dissolved only into not less than 10 mL thereof)”. Moreover, in data set [3] (0.1 g compound, propyleneglycol monomethylether acetate added gradually at room temperature, visual), the “Solubility in PGMEA” value was “−− (dissolved only into not less than 10 mL thereof)”. Moreover, in data set [3] (conclusion from Table 7), the “Solubility to organic solvents generally used in this field (in words)” value is “poor solubility” and the “Solubility to the base-reactive compound (in words)” value is reported as “poor solubility”.
“1,3-dimethyl-2-(N′,N′,N″,N″-tetramethylguanidino)-4,5-dihydro-3H-imidazolium triphenyl(n-butyl)borate [Example 4]”: the “Storage stability in epoxy” value in data set [1] is “◯”. Further, in data set [2], the “TG-DTA Decomposition Initiation Temperature (5% weight loss initiation temperature)” value came to 280 °C.
The matching figures for `CC(C)NC(=[N+]=C(N(C)C)N(C)C)NC(C)C.Cc1ccc(C#C[B-](c2ccccc2)(c2ccccc2)c2ccccc2)cc1` [Example 6, 1,2-diisopropyl-4,4,5,5-tetramethylbiguanidium p-tolylethynyl triphenylborate]: “◯” and 185 °C.
On the same counts, the results for “1-cyclohexyl-3-(4-nitrophenyl)-4,4,5,5-tetramethylbiguanidium triphenyl(n-butyl)borate [Example 9]” are “◯” and 223 °C.
The matching figures for `CCCC[B-](c1ccccc1)(c1ccccc1)c1ccccc1.CN(C)C(=N[P+](N=C(N(C)C)N(C)C)(N=C(N(C)C)N(C)C)N=C(N(C)C)N(C)C)N(C)C` [Example 5, tetrakis(tetramethylguanidino)phosphonium triphenyl(n-butyl)borate]: “◯” and 318 °C.
For “1,3-dimethyl-2-(N,N′,N″,N″-tetramethylguanidino)-4,5-dihydro-3H-imidazolium triphenyl(n-butyl)borate [Comp. Ex. 10]”, the “Storage stability in epoxy” value in data set [1] is recorded as “−”.
